Values quoted from earlier work, collected in patent US12163116B2, “Automated bioreactor with foam collector” (OHIO STATE INNOVATION FOUNDATION, priority 2018, dated 2024).

Experiments:
[1] = compared to commercially available lantibiotics such as nisin
L. innocua = conditions: against L. innocua; taught by prior art
[2] = system: Gram-positive bacteria including species of Listeria, Clostridium, Lactobacillus, Staphylococcus, Bacillus

paenibacillin
temperature and pH stability [1]: relatively high temperature and pH stability | minimum inhibitory concentration (L. innocua): 4 µg/mL | antimicrobial potency [2]: potent against Gram-positive bacteria | water solubility: highly water soluble
